Data set [1] concerns IL-17A production in anti-CD3/anti-CD28 stimulated peripheral blood mononuclear cells (PBMCs). Nature of the data set: Peripheral blood mononuclear cell (PBMC) IL-17 assay. It is filed as cell-based. Particulars: 120 h, human PBMCs, 5 days, IL-17A AlphaLISA, average of 11 human donors, read-out: PBMC IL-17 assay pIC50 Average (converted). How it is done: Examples 2-3 of the present application and example No.37 from WO2015/082533 were tested for their ability to inhibit the IL-17A production in anti-CD3/anti-CD28 stimulated peripheral blood mononuclear cells (PBMCs) isolated from human blood.
This assay is designed to measure the levels of IL-17A secreted from anti-CD3/anti-CD28 stimulated PBMCs with the aim of measuring the inhibition of RORγ mediated IL-17A production.
The assay medium consists of 90% RPMI 1640 (Lonza), 10% heat-inactivated fetal bovine serum (FBS, Lonza) and 100 U/mL penicillin/streptomycin solution.
Anti-CD3 antibody (BD Pharmingen) was diluted to 10 μg/ml in PBS (Lonza). 30 μL of 10 μg/ml anti-CD3 solution was added to the inner 60 wells of a 96-well cell culture treated U-bottom plate (Greiner). Plates were incubated overnight (16-24 hours) at 37° C. and 5% CO2. […]
After incubation, the plates were spun down at 1500 rpm for 4 minutes and the supernatant was collected. Subsequently, the IL-17A levels in the supernatants was determined using an IL-17A AlphaLISA kit (Perkin Elmer) according to the manufacturer's protocol.
The half maximum inhibitory concentration (IC50) values for the test compounds were calculated from the IL-17A signal using GraphPad Prism software (GraphPad Software).
For orientation: Alpha assays give light when donor and acceptor beads are brought close together.

The nature of data set [2]: Aqueous equilibrated solubility. It is filed as physicochemical. Conditions: thermodynamic from solid; aqueous phosphate buffer 50 mM pH 7.4, shaken overnight at RT; pH 7.5 = pH of the solubilized fraction. How it is done:
The studied compound was accurately weighted with a target concentration of 2 mg/mL in an aqueous phosphate buffer (50 mM at pH=7.4). The solution was shaken overnight (rock'n roll shaker) at RT and protected from light (about 24 hrs). The solution was filtered in plate filter device (microplate Millipore “Solvinert” with integrated PTFE filter; 0.45 μm) and the filtrate was dosed by LC/UV method.
The studied compound was accurately weighted with a target concentration of 0.1 mg/mL in DMSO. The solution was sonicated at RT and protected from light. The reference solution was dosed by a LC/UV method and pH of the solubilized fraction was measured.

As a reminder, the solubility is the concentration that dissolves in the medium under given conditions. Lower therefore signals a poorly soluble substance.

Some results are limits rather than exact numbers.

With `O=C(Cc1ccc(S(=O)(=O)CC2CC2)cc1)Nc1ccc([C@@](O)(C(F)F)C(F)(F)F)cc1` [Example 2, (+)-2-[4-(cyclopropylmethylsulfonyl)phenyl]-N-[4-[(1R)-1-(difluoromethyl)-2,2,2-trifluoro-1-hydroxy-ethyl]phenyl]acetamide], the IC50 in data set [1] is 63.1 nM. The solubility at 24 h in data set [2] was under 1 µg/mL.
The matching figures for `O=C(Cc1ccc(S(=O)(=O)CC2CC2)cc1)Nc1ccc([C@](O)(C(F)F)C(F)(F)F)cc1` [Example 3, (−)-2-[4-(cyclopropylmethylsulfonyl)phenyl]-N-[4-[(1S)-1-(difluoromethyl)-2,2,2-trifluoro-1-hydroxy-ethyl]phenyl]acetamide]: 25.1 nM and under 1 µg/mL.

The record behind these values is patent US20190119204A1, “ROR GAMMA (RORy) MODULATORS” (Lead Pharma Holding B.V., priority 2016, published 2019).
